# Biological target: T1, acetylcholinesterase (AChE) (Electrophorus electricus, UniProt O42275)
# T1 construct: commercial native enzyme from electric eel (Sigma-Aldrich)
# Test: Ellman assay, […] nm
# Type: biochemical
# T1 sequence (O42275 24-633): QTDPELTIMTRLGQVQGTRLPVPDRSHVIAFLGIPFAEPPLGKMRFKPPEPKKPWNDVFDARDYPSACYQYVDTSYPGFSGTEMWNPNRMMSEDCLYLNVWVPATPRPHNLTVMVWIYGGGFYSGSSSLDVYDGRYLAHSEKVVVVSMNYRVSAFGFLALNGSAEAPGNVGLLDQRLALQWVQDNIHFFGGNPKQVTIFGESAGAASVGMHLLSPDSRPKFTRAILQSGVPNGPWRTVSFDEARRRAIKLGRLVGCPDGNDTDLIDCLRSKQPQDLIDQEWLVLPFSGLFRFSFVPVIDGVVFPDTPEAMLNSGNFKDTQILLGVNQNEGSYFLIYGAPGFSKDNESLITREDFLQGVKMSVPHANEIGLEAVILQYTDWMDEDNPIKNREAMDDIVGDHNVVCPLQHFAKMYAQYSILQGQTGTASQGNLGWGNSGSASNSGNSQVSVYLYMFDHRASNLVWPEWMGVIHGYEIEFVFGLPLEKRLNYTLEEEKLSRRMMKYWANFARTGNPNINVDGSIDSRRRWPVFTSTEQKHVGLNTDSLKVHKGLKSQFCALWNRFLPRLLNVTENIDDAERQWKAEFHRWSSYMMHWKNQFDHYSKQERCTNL
smiles,measurement,value
C[C@@H]1C[C@H]2OC(=O)[C@@]3(C)CCC[C@@](C)([C@@H]23)[C@@]1(O)CCc1ccoc1 [marrubiin],IC50,52.7 ± 5.66 µM

# From paper PMC10821196, “Analysis of Marrubiin in Marrubium alysson L. Extract Using Advanced HPTLC: Chemical Profiling, Acetylcholinesterase Inhibitory Activity, and Molecular Docking” (Metabolites, 2023)
